Measured values taken from ChEMBL document CHEMBL1201862, “PubChem BioAssay data set” (2004).
Blank lines part the entries; values can stand above or below the compound they belong to. Active and inactive are the calls of the source.

Columns and labels:
[1] = OVCAR-3 cell viability loss – plate reader, dry powder samples, PAX8 inhibitor project, dose response (AID 743044); type: functional, cell-based
Paired box protein Pax-8 = Paired box protein Pax-8 (Homo sapiens, UniProt Q06710); assay: PAX8 transcriptional activity inhibition in RMG-I – RMG-I cells, luciferase, cherry-pick, dose response (AID 687027); type: functional, cell-based;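 further: luciferase reporter driven by Pax8 target thyroperoxidase promoter measured by SteadyGlo luminescence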
[2] = IGROV1 cell killing – plate reader, dry powder samples, PAX8 inhibitor project, dose response (AID 743043); type: functional, cell-based; conditions: IGROV-1
[3] = OVCAR8 cell viability loss – plate reader, dry powder samples, PAX8 project, dose response (AID 743197); type: functional, cell-based; conditions: OVCAR-8
Cytochrome P450 2C19 = Cytochrome P450 2C19 (Homo sapiens, UniProt P33261); assay: Cytochrome panel assay with activity outcomes. Panel member name: p450-cyp2c19 Compounds with AC50 equal or less than 10 uM are considered active; type: functional; conditions: read-out: AC50
[4] = target: Protein-tyrosine kinase 2-beta (Homo sapiens, UniProt Q14289);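 further: potency of inhibitors of PYK2 kinase phosphorylation of poly-GT substrate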
Cytochrome P450 3A4 = Cytochrome P450 3A4 (Homo sapiens, UniProt P08684);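 further: CYP3A4 tested as one member of a cytochrome P450 panel screen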
[5] = target: Heat shock protein HSP 90-alpha (Homo sapiens, UniProt P07900); assay: Luminescence-based dose response biochemical high throughput screening assay for inhibitors of the Heat Shock Protein 90 (HSP90). [Related pubchem assays: 1831 (Summary AID.), 1846 (Confirmation screen.), 1789 (Primary screen.)]
[6] = blockade of melanocortin 4 receptor signaling – cell-based, plate reader, cherry pick, counter-screen for LGR2 antagonist project, dose response (AID 743444); type: functional;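 further: transfected HEK 293 cells stimulated with alpha-MSH peptide; potency of inhibitors of the alpha-MSH evoked signal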
[7] = target: T1, Oxysterols receptor LXR-beta (Homo sapiens, UniProt P55055); type: functional, cell-based;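 further: Cell-based luminescence dose-response assay of agonist activity at LXR, run as a confirmatory counterscreen to a daf-12 agonist screen; HEK293 cells with Gal4-LXR fusion and GAL4-driven luciferase reporter; agonist potency from rising luciferase signal of a Gal4-LXR reporter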
T1 sequence (P55055 whole entry): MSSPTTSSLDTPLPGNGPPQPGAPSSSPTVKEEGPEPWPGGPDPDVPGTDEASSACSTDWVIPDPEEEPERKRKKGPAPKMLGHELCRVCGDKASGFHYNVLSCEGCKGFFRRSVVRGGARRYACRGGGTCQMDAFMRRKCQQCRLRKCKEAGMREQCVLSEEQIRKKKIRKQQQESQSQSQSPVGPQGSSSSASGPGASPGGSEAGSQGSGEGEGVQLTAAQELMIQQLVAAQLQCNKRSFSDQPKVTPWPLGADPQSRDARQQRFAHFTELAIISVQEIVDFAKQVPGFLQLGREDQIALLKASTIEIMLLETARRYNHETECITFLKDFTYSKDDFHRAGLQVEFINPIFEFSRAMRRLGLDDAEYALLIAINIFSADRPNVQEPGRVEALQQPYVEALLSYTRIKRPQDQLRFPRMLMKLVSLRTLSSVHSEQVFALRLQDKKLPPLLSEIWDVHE

[8] = blockers of bursicon-stimulated LGR2 cAMP reporter – cell-based, HEK293, CRE-luciferase reporter, cherry pick, set 2, dose response (AID 743343); type: functional;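 further: transfected cells were stimulated with diluted bursicon conditioned medium after compound addition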
[9] = toxicity toward HepG2 liver cells – cell-based, plate reader, cherry-pick, antagonist series, cytotoxicity control, dose response (AID 743416); type: functional
cells [10] = assay: cells
[11] = A549 cell cytotoxicity, dose response, cytotoxicity control, plate reader, cherry-pick, antagonist series (AID 743412); type: functional, cell-based
Ion channel NompC = Ion channel NompC (Danio rerio, UniProt Q7T1G6); assay: Fluorescence counterscreen assay for TRPML3 agonists: dose response cell-based high-throughput screening assay to identify agonists of the transient receptor potential channel N1 (TRPN1). [Related pubchem assays: 1526, 1424, 1448 ]; type: functional
Mucolipin-3 = target: T2, Mucolipin-3 (Homo sapiens, UniProt Q8TDD5); assay: Dose response cell-based high-throughput screening assay for agonists of the transient receptor potential channel ML3 (TRPML3). [Related pubchem assays: 1526, 1424, 1448 ]; type: functional
T2 sequence (Q8TDD5 whole entry): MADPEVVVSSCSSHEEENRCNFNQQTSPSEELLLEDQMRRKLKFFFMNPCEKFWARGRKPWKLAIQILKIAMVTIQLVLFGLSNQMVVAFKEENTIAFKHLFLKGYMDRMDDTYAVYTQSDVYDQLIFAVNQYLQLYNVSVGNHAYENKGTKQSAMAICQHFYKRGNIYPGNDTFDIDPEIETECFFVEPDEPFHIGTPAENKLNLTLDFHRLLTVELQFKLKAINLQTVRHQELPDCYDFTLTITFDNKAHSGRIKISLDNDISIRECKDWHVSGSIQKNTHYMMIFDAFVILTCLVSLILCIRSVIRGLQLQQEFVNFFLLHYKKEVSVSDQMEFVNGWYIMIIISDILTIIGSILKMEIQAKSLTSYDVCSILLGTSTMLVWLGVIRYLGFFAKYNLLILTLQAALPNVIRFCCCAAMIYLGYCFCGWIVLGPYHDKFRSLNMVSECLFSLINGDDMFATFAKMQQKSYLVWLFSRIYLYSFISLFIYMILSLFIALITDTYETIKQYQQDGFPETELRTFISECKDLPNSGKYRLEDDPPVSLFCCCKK

[12] = target: T3, Lysosomal acid glucosylceramidase (Homo sapiens, UniProt P04062); assay: Dose response cell-based high throughput screening assay to identify enhancers of beta-glucosidase activity. [Related pubchem assays: 784 ]; type: functional
T3 sequence (P04062 whole entry): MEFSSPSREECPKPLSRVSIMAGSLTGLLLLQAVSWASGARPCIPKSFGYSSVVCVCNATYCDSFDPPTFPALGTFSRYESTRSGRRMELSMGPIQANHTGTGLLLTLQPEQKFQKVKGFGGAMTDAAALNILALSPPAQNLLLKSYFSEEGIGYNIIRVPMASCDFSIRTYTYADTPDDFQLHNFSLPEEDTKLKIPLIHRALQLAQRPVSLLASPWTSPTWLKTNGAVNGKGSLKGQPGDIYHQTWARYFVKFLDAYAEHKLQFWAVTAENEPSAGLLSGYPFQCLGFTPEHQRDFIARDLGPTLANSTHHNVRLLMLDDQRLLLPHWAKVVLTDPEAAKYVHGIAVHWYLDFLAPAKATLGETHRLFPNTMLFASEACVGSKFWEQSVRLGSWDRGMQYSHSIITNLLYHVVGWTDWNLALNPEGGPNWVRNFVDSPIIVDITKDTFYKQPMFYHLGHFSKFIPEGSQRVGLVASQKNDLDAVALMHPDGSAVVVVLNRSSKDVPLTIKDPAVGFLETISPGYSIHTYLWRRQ

Prothrombin = Prothrombin (Homo sapiens, UniProt P00734); assay: Thrombin 1536 HTS Dose Response Confirmation. [Related pubchem assays: 1046 (Thrombin 1536 HTS; hits were confirmed in this assay)]; type: functional
cells [13] = type: functional, cell-based
[14] = viability loss in HEK293 cells – cell-based, plate reader, cherry-picked samples, cytotoxicity control, dose response (AID 743446); type: functional
cells [15] = type: functional, cell-based; remark: listed apart in the source
fMet-Leu-Phe receptor = target: T4, fMet-Leu-Phe receptor (Homo sapiens, UniProt P21462); assay: formyl peptide receptor binders – dose response (AID 519); type: functional
T4 sequence (P21462 whole entry): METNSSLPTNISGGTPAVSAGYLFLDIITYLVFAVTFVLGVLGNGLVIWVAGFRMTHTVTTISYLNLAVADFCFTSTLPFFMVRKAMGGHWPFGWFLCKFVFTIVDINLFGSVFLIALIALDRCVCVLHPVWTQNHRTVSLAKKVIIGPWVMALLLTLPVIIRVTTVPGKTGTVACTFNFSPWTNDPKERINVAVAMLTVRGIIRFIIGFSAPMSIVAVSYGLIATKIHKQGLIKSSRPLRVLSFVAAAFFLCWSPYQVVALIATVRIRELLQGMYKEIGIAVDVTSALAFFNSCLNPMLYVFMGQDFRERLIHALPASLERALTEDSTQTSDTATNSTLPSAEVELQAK

Cytochrome P450 1A2 = target: T5, Cytochrome P450 1A2 (Homo sapiens, UniProt P05177);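 further: PubChem cytochrome P450 panel assay, CYP1A2 panel member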
T5 sequence (P05177 whole entry): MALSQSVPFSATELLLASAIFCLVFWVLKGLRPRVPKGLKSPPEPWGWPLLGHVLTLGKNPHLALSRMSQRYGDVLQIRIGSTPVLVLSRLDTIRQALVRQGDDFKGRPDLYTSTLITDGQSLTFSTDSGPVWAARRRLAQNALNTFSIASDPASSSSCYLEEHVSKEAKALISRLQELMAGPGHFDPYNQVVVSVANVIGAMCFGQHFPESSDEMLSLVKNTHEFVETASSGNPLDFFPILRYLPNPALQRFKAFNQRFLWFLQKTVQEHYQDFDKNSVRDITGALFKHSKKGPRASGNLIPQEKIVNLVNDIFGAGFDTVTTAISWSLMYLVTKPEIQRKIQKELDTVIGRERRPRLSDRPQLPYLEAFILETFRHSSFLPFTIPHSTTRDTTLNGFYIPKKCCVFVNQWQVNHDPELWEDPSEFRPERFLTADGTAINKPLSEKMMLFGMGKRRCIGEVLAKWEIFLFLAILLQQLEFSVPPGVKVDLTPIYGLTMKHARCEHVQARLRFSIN

HT-1080 = assay: HT1080 cell viability loss – fluorescence readout (AID 620); type: functional, cell-based; conditions: Homo sapiens
[16] = target: T6, Luciferin 4-monooxygenase (Photinus pyralis, UniProt P08659); assay: Counter Screen for Luciferase-based Assay Positives. [Related pubchem assays: 620, 618, 411 ]
[17] = Luminescence Cell-Based Dose Confirmation HTS to Identify Inhibitors of Platelet Dense Granule Release. [Related pubchem assays: 1663 (Primary HTS), 1678 (Summary of Project)]; type: functional
[18] = target: T6, Luciferin 4-monooxygenase; assay: inhibition of purified Photinus pyralis luciferase – biochemical, luminescence, dose response (AID 1891)

T6 sequence (P08659 whole entry): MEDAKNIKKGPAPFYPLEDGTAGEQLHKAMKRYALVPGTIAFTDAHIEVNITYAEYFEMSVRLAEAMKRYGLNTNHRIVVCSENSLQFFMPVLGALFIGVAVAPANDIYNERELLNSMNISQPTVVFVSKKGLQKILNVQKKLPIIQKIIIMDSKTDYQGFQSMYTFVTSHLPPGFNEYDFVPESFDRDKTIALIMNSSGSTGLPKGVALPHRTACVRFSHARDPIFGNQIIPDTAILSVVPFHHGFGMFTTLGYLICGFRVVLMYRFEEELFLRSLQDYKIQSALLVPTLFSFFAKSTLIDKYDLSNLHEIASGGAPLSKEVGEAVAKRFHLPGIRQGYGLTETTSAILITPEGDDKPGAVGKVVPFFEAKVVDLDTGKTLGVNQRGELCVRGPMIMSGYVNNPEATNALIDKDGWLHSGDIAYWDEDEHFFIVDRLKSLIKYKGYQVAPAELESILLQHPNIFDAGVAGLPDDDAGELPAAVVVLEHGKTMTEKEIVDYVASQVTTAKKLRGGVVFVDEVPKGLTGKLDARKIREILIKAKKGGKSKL
Sequence of Ion channel NompC (Q7T1G6 whole entry): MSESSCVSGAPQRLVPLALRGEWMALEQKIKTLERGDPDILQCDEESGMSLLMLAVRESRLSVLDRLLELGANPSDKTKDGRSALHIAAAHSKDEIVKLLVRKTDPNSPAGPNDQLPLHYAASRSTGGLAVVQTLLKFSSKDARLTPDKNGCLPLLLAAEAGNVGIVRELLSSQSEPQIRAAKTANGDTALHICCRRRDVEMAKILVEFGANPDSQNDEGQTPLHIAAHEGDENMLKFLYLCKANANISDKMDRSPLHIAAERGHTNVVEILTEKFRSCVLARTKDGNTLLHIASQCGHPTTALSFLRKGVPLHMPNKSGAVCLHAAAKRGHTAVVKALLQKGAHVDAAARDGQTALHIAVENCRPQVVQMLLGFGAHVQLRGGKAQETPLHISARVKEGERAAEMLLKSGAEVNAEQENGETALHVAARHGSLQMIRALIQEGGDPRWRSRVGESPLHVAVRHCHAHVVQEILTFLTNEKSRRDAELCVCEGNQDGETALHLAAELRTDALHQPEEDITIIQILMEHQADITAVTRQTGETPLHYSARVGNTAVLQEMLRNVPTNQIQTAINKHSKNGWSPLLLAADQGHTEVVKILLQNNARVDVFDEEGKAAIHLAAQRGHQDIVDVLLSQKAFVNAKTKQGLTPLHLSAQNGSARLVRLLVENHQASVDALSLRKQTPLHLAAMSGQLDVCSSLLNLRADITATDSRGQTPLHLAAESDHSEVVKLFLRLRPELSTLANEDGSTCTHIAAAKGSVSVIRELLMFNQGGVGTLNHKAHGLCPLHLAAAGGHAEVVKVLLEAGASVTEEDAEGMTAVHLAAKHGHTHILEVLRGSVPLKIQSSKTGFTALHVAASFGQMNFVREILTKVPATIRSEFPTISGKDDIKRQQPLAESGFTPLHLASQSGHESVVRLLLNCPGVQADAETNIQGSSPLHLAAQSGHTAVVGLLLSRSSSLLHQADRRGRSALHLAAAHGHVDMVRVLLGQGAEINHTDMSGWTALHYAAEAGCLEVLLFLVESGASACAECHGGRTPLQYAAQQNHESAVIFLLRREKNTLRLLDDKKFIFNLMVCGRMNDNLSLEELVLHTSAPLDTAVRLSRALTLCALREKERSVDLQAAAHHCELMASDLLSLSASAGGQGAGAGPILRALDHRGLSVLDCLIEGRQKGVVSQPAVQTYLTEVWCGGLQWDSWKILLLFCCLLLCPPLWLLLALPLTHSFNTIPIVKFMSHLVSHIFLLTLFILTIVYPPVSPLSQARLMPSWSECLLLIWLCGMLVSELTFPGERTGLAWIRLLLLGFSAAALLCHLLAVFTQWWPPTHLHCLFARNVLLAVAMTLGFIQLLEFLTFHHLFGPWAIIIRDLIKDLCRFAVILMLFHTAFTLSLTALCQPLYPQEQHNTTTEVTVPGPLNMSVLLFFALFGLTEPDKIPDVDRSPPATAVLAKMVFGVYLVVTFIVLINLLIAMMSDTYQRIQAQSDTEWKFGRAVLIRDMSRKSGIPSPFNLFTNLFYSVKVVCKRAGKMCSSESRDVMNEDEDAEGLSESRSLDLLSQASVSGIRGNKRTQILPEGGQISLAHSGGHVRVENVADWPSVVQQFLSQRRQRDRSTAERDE
Sequence of Paired box protein Pax-8 (Q06710 whole entry): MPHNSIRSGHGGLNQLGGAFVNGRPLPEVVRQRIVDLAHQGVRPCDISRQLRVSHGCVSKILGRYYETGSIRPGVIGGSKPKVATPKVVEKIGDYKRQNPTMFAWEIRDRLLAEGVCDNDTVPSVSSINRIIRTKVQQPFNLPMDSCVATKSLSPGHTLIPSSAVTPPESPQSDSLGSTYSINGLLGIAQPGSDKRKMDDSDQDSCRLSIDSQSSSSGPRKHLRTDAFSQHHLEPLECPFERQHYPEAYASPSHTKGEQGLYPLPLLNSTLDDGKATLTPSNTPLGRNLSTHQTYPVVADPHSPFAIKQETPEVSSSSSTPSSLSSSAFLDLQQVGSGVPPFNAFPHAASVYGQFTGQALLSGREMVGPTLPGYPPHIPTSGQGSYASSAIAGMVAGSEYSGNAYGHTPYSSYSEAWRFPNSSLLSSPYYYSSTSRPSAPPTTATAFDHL
Sequence of Cytochrome P450 3A4 (P08684 whole entry): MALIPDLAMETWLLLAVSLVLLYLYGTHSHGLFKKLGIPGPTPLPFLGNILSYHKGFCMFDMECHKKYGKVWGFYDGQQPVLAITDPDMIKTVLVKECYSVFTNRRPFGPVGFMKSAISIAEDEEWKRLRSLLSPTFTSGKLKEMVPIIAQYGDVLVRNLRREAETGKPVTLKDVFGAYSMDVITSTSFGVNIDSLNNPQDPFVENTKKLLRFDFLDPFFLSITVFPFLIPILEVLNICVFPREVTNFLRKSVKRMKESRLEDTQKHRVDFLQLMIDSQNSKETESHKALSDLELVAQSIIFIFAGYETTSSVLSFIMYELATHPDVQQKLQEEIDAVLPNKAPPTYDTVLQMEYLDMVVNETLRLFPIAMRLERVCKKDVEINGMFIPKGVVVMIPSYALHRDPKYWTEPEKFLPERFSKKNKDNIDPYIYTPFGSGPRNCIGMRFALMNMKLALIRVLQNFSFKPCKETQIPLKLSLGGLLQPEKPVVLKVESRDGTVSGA
Sequence of Protein-tyrosine kinase 2-beta (Q14289 whole entry): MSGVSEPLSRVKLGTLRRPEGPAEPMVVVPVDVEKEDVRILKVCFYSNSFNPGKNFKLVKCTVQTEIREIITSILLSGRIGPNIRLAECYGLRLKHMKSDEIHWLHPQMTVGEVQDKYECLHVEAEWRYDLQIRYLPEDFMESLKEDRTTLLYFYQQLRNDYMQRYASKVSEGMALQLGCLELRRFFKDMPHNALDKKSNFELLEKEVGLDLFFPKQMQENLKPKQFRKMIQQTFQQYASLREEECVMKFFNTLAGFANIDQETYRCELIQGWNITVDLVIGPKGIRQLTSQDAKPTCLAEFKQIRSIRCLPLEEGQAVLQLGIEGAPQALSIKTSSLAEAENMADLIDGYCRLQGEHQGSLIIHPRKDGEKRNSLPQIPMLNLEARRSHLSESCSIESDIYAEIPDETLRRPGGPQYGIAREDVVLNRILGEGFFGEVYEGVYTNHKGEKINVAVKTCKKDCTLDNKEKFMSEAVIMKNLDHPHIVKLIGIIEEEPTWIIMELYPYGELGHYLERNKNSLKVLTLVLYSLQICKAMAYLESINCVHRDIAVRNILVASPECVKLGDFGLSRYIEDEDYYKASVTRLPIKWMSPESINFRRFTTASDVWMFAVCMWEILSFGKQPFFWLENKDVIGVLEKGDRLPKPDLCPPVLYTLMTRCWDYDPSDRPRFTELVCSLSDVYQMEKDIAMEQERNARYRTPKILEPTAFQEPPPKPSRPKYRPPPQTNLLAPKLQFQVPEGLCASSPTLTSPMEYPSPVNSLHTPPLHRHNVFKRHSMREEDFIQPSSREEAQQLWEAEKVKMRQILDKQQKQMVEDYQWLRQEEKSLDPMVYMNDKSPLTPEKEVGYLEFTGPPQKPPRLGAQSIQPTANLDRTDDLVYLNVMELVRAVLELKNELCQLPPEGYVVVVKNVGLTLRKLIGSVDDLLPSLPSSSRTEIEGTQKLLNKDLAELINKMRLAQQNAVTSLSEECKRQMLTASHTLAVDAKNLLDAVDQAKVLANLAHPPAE
Sequence of Cytochrome P450 2C19 (P33261 whole entry): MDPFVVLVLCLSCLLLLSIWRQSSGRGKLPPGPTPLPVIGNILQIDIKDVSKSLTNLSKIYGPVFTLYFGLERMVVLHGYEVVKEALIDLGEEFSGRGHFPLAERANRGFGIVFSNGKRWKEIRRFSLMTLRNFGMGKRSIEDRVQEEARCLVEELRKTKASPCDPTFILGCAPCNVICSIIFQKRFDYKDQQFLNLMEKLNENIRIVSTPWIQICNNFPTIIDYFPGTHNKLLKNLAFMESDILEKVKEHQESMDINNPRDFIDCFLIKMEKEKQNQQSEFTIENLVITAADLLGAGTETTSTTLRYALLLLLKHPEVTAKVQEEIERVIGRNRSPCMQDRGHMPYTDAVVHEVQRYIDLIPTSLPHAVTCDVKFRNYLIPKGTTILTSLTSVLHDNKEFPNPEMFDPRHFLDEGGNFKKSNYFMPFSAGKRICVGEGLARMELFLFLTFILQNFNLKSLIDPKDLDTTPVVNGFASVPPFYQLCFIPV

SMILES: Cc1ccc(S(=O)(=O)Nc2ccc3c(c2)C(=O)N([C@@H](C)CO)C[C@H](C)[C@H](CN(C)Cc2ccc(C(F)(F)F)cc2)OCCCC[C@H](C)O3)cc1
AC50 [1]: 29.8 µM (active)
AC50 (Paired box protein Pax-8): 6.16 µM (active)
AC50 [2]: 42.5 µM (active)
AC50 [3]: 25.4 µM (active)

SMILES: Cc1cc(-c2ccccc2)n2ncc(-c3ccccc3)c2n1
AC50 [6]: 7.1 µM (active)
EC50 [7]: > 67.5 µM (inactive)
AC50 [8]: 4.98 µM (active)
AC50 [9]: 39.3 µM (active)
EC50 (cells [10]): > 67.5 µM (inactive)
AC50 [11]: > 52 µM (inactive)

SMILES: CCN(CC)S(=O)(=O)c1ccc(NC(=O)CN(c2cccc(F)c2)S(C)(=O)=O)cc1
EC50 [12]: > 50 µM (not active)

SMILES: O=C(CSc1nc(-c2ccccc2)nn1C(=O)c1ccccc1)Nc1cccc([N+](=O)[O-])c1
IC50 (Prothrombin): 1.39 µM (active)

SMILES: O=C(Nc1ccc2ccccc2c1)c1ccccc1O
AC50 [6]: 6.02 µM (active)
EC50 (cells [13]): > 350 µM (not active)
EC50 [7]: > 67.6 µM (inactive)
AC50 [14]: 7.8 µM (active)
EC50 (cells [15]): 6.87 µM (active)
AC50 [8]: 7.6 µM (active)
AC50 [9]: 6.27 µM (active)
EC50 (cells [10]): > 67.6 µM (inactive)
AC50 [11]: > 52 µM (inactive)

SMILES: COc1ccc(CCN2C(=O)C(O)=C(C(=O)c3ccco3)C2c2cccs2)cc1OC (centres undefined)
Ki (fMet-Leu-Phe receptor): 19 µM (inactive)
AC50 (Cytochrome P450 3A4): 25.1 µM (inconclusive)
AC50 (Cytochrome P450 1A2): 31.6 µM (inconclusive)

SMILES: CCCn1c2c(c(O)c(C(=O)Nc3nccs3)c1=O)CCCC2
IC50 (Prothrombin): > 50 µM (not active)

SMILES: C[C@@H]1CCCCO[C@H](CN(C)Cc2ccc(Cl)c(Cl)c2)[C@H](C)CN([C@@H](C)CO)C(=O)c2cc(NS(=O)(=O)c3ccc(Cl)cc3)ccc2O1
AC50 [1]: 24.6 µM (active)
AC50 (Paired box protein Pax-8): 6.76 µM (active)
AC50 [2]: 49.7 µM (active)
AC50 [3]: 33.7 µM (active)

SMILES: COc1cccc(-c2nc(-c3ccccn3)no2)c1
EC50 (HT-1080): > 50 µM (not active)
EC50 [16]: 6.27 µM (active)
EC50 [17]: 8.12 µM (active)
EC50 [18]: 4.73 µM (active)

SMILES: O=S(=O)(c1ccc2ccccc2c1)N1CCCCC1
EC50 (Ion channel NompC): > 29.9 µM (not active)
EC50 (Mucolipin-3): 15.1 µM (not active)

SMILES: Cc1csc(NC(=O)c2cc3c(s2)CCCC3)n1
EC50 (HT-1080): 25.7 µM (active)
EC50 [16]: 2.99 µM (active)

Now from value to compound:

AC50 (Cytochrome P450 2C19): 1.12 µM (inconclusive)
IC50 [4]: > 69.5 µM (not active)
AC50 (Cytochrome P450 3A4): 17.8 µM (inconclusive)
SMILES: Cc1n[nH]c(C)c1N=Nc1cc(Cl)ccc1Cl

IC50 [5]: 0.469 µM (active)
SMILES: CC(C)(C)c1ccc(C(=O)c2c[nH]c(C(=O)O)c2)cc1

EC50 (Ion channel NompC): > 29.9 µM (not active)
EC50 (Mucolipin-3): 6.34 µM (active)
SMILES: COc1ccc(CCNC(=O)COc2ccc(N(C)S(=O)(=O)c3ccc(Cl)cc3)cc2)cc1

EC50 [12]: > 50 µM (not active)
SMILES: Cc1cc(NC(=O)CSc2nc3ccccc3[nH]2)no1

IC50 (Prothrombin): 0.949 µM (active)
SMILES: Cc1cc(=O)oc2cc(OC(=O)c3ccco3)ccc12

EC50 (Ion channel NompC): > 29.9 µM (not active)
EC50 (Mucolipin-3): 3.83 µM (active)
SMILES: Cc1ccc(S(=O)(=O)N2CCC(C)CC2)c([N+](=O)[O-])c1

IC50 [5]: 5.72 µM (active)
SMILES: O=C(O)c1cc(N/N=C/c2cccnc2)ccc1Cl

EC50 [12]: > 50 µM (not active)
SMILES: Cc1nc(C)c(-c2csc(NCc3ccco3)n2)s1
